{"source": "patent EP2604265A1", "about": "“P2x7 antagonists as frontline or adjunctive treatment against status epilepticus” (Royal College of Surgeons in Ireland (RCSI), priority 2011, dated 2013)", "key": {"[1]": {"test_system": "hippocampal neurons", "test": "Luciferine-luciferase luminescence assay of extracellular ATP release", "type": "cell-based, mouse", "details": "primary cultures; glutamate 100 µM; NEM 500 µM pre-treatment", "protocol": "Hippocampal neurons were prepared as described previously (Diaz-Hernandez et al., 2008). Briefly, hippocampi were obtained from E17 mouse embryos and, after dissection and washing three times in Ca^2+/Mg^2+-free HBSS, tissue was digested in the same solution with 0.25% trypsin for 15 min at 37°C. Hippocampi were then washed three times in Ca^2+/Mg^2+-free HBSS and dissociated with a firepolished Pasteur pipette. Cells were counted, resuspended in plating medium (MEM, 10% fetal bovine serum, 0.6% glucose) and plated at a density of 5,000 cells/cm^2 on poly-L-lysine coated coverslips (1 mg/ml). After plating, neurons were cultured for 24-72 h in neuronal culture medium (Neurobasal, B-27, glutamax-I). For biochemical experiments, hippocampal neurons were plated on polylysine-coated (1 mg/ml) 60-mm plates at a density of 200,000 cells/cm^2, and cultured for 72 h in neuronal culture medium. AraC was added at a final concentration of 5 µM after 2 days in culture. Extracellular ATP concentration was measured as previously described (Diez-Zaera et al., 2011). Neurons were grown in 6-well plates at a density of 200,000 cells/cm^2. […] In some cases, ATP release was also measured in the presence of A-438079 (1 µM). ATP concentration was determined by comparison with a calibration curve generated with ATP standards diluted in the same buffer as the samples."}, "[2]": {"test_system": "Adult male C57BL/6 mice", "test": "Intra-amygdala KA-induced SE in mice, EEG, drug i.c.v. immediately prior to KA", "type": "in vivo", "details": "i.c.v. co-injection immediately prior to intra-amygdala KA; vs vehicle (antibody vs control IgG); lorazepam at 40 min", "protocol": "(§1) Adult male C57BL/6 mice (20-25 g) were obtained from Harlan UK (Blackthorn, UK). Mice were first anesthetized using isoflurane (3-5%) and maintained normothermic by means of a feedback-controlled heat blanket (Harvard Apparatus Ltd, Kent, UK). Mice were next placed in a stereotaxic frame and three partial craniectomies performed to affix cortical skull-mounted EEG electrodes (Bilaney Consultants Ltd, Sevenoaks, UK). EEG was recorded using a Grass Comet XL digital EEG (Medivent Ltd, Lucan, Ireland). A guide cannula was affixed (coordinates from Bregma: AP = 0.94; L = 2.85 mm) and the assembly fixed in place with dental cement. Anesthesia was then discontinued and freely moving mice were placed inside a clear perspex recording chamber. EEG recordings were commenced and after establishing baseline EEG for a few minutes, an injection cannula was lowered through the guide cannula for injection of kainic acid (KA) (Ocean Produce International, Nova Scotia, Canada) into the basolateral amygdala nucleus (0.3 µg in 0.2 µl phosphate-buffered saline). Non-seizure control mice underwent the same surgical procedure but received 0.2 µl intra-amygdala vehicle. Mice were killed at different time-points (1, 4, 8 or 24 h) later and perfused with saline to remove intravascular blood components. Brains were either flash-frozen whole in 2-methylbutane at […] or perfused with 4% PFA for histopathology, or dissected on ice to obtain whole hippocampus or microdissected to obtain the different hippocampal subfields (CA1, DG and CA3).\nDigitized EEG recordings were analyzed off-line using manual assessment and automated software. […] The duration of high-frequency (>5 Hz) high-amplitude (>2× baseline) polyspike discharges of ≥5 s duration (HAHFDs) was counted by a reviewer blind to treatment. Further EEG analysis was performed by uploading EEG into Labchart7 software (ADInstruments) to calculate the power spectral density (total power, a measure of the input signal's power (amplitude) over frequency) EEG spectrogram (spectral power against frequency and time).\nAll the following drugs were purchased from Sigma-Aldrich Ireland (Arklow, Ireland) and delivered by intracerebroventricular (i.c.v.) microinjection in 2 µl volume unless otherwise specified: Adenosine 5'-triphosphate (ATP) at 100 µM, Uridine-5'-triphosphate (UTP) at 100 µM, Uridine-5'-diphosphate (UDP) at 100 µM, 2-chloro-N6-cyclopentyladenosine (CCPA) 300 nM, Pyridoxal-phosphate-6-azophenyl-2,4-disulfonate (PPADS) at 50 µM, α,β- methylene- adenosine-5-triphosphate (α,β-meATP) at 0.1 nmol, 3-O-(4-benzoyl)benzyl-ATP (Bz-ATP) at 300 µM, Brillant Blue G (BBG) at 30 nM.\nLorazepam (Ativan®, Wyeth, Taplow, U.K.) (6 mg/kg) was administered intraperitoneally (i.p.) at 40 or 60 min after KA.\nNext, a model of focal-onset SE was used to evaluate the contributions of ATP-gated receptors in vivo. Mice received intra-amygdala microinjection of KA to induce SE (Fig. 2C). […] The electroencephalogram (EEG) was recorded by using cranial electrodes (lower part of Fig. 2C). Seizures were curtailed after 40 min by the injection of lorazepam to minimize morbidity and mortality."}, "[3]": {"test_system": "rat models", "details": "mifepristone before or after the onset of SE; cited from earlier work"}, "[4]": {"test_system": "neonatal seizures", "details": "in vivo; cited from earlier work"}, "[5]": {"test_system": "Adult male C57BL/6 mice", "test": "Histopathology of ipsilateral hippocampal CA3 after SE (FJB and NeuN counts)", "type": "in vivo", "details": "24 h after SE; drug given prior to SE; vs vehicle", "protocol": "as §1\nFlash-frozen brains in 2-methylbutane were sectioned at -20°C on a Leica cryostat and 12 µm sections collected at the level of dorsal hippocampus (-1.8 mm and - 2.9 mm from Bregma according to a mouse stereotaxic atlas (Paxinos and Franklin, 2001). Neuronal death was assessed using Fluoro-Jade B (FJB) staining, as previously described (Engel et al., 2010; Murphy et al., 2010). Briefly, sections were air-dried and post-fixed in formalin followed by hydrating through graded alcohols. Sections were then rinsed in distilled water and transferred to 0.006% potassium permanganate solution for 15 min. Sections were rinsed again and transferred to a 0.001% FJB solution according to manufacturer's recommendations (Chemicon Europe Ltd, Chandlers Ford, UK). After staining, sections were mounted in DPX (Sigma-Aldrich). For NeuN immunohistochemistry, sections were fixed and permeabilized, blocked in goat serum and incubated overnight with anti-NeuN antibodies (Millipore Ireland B.V., Tullagreen, Ireland) followed by incubation with goat anti-rabbit IgG antibodies coupled to AlexaFluor 568 (BioSciences Limited, Dun Laoghaire, Ireland). Sections were examined using a Nikon 2000s epifluorescence microscope under Ex/Em wavelengths of 472/520 nm (green) and 540 to 580/600 to 660 nm (red) and images captured using a Hamamatsu Orca 285 camera. Cell counts were the average of two adjacent sections for the CA3 subfield under 40x lens magnification by an observer blinded to treatment."}, "[6]": {"details": "in vivo; cited from earlier work"}, "[7]": {"test_system": "Adult male C57BL/6 mice", "test": "Refractory SE model in mice, drugs given 60 min post-KA, EEG during the next hour", "type": "in vivo", "protocol": "as §1\nDigitized EEG recordings were analyzed off-line using manual assessment and automated software. The occurrence of high amplitude high frequency spiking during seizures is synonymous with injury-causing electrographic seizures during SE (also termed type IV electrographic seizures) (Lowenstein et al., 1991; Henshall et al., 2000). The duration of high-frequency (>5 Hz) high-amplitude (>2× baseline) polyspike discharges of ≥5 s duration (HAHFDs) was counted by a reviewer blind to treatment. Further EEG analysis was performed by uploading EEG into Labchart7 software (ADInstruments) to calculate the power spectral density (total power, a measure of the input signal's power (amplitude) over frequency) EEG spectrogram (spectral power against frequency and time).\nA-438079 (3-[[5-(2,3-Dichlorophenyl)-1H-tetrazol-1-yl]methyl]pyridine hydrochloride) (50 µM) was from Tocris Biosciences (Bristol, U.K.) and the P2X7R specific antibody was from Alomone Labs (APR-008, Alomone Labs, Ltd, Jerusalem, Israel) and injected at 0.7 mg/ml. Lorazepam (Ativan®, Wyeth, Taplow, U.K.) (6 mg/kg) was administered intraperitoneally (i.p.) at 40 or 60 min after KA.\nTo model refractory SE, seizures were allowed to continue beyond the normal time when lorazepam is given (40 min) and instead the effects of drugs were recorded 60 min post-KA on the EEG during the next hour."}}, "data": [{"molecule": "N[C@@H](CCC(=O)O)C(=O)O", "note": "[glutamate]", "values": [{"measurement": "ATP release from hippocampal neurons", "setting": "[1]", "value": "induced the rapid release of ATP"}]}, {"molecule": "Nc1ncnc2c1ncn2[C@@H]1O[C@H](COP(=O)(O)OP(=O)(O)OP(=O)(O)O)[C@@H](O)[C@H]1O", "note": "[ATP, Adenosine 5'-triphosphate]", "values": [{"measurement": "seizure time during SE (duration of HAHFDs)", "setting": "[2]", "value": "significantly increased"}]}, {"molecule": "CCN1C(=O)C=CC1=O", "note": "[NEM, N-Ethylmaleimide]", "values": [{"measurement": "ATP release from hippocampal neurons", "setting": "[1]", "value": "ATP release was blocked"}]}, {"molecule": "CC#C[C@]1(O)CC[C@H]2[C@@H]3CCC4=CC(=O)CCC4=C3[C@@H](c3ccc(N(C)C)cc3)C[C@@]21C", "note": "[mifepristone]", "values": [{"measurement": "efficiency of diazepam", "setting": "[3]", "value": "increases efficiency of diazepam"}]}, {"molecule": "OC[C@H]1O[C@@H](n2cnc3c(NC4CCCC4)nc(Cl)nc32)[C@H](O)[C@@H]1O", "note": "[CCPA, 2-chloro-N6-cyclopentyladenosine]", "values": [{"measurement": "seizure time during SE (duration of HAHFDs)", "setting": "[2]", "value": "significantly reduced"}]}, {"molecule": "Nc1ncnc2c1ncn2[C@@H]1O[C@H](COP(=O)(O)OP(=O)(O)OP(=O)(O)O)[C@@H](OC(=O)c2ccc(C(=O)c3ccccc3)cc2)[C@H]1O", "note": "[BzATP, 3-O-(4-benzoyl)benzyl-ATP]", "values": [{"measurement": "seizure time during SE (duration of HAHFDs)", "setting": "[2]", "value": "significant increase of seizure time"}]}, {"molecule": "O=c1ccn([C@@H]2O[C@H](COP(=O)(O)OP(=O)(O)OP(=O)(O)O)[C@@H](O)[C@H]2O)c(=O)[nH]1", "note": "[UTP, Uridine-5'-triphosphate]", "values": [{"measurement": "seizure time during SE (duration of HAHFDs)", "setting": "[2]", "value": "no differences in seizure time"}]}, {"molecule": "O=c1ccn([C@@H]2O[C@H](COP(=O)(O)OP(=O)(O)O)[C@@H](O)[C@H]2O)c(=O)[nH]1", "note": "[UDP, Uridine-5'-diphosphate]", "values": [{"measurement": "seizure time during SE (duration of HAHFDs)", "setting": "[2]", "value": "no differences in seizure time"}]}, {"molecule": "Nc1ncnc2c1ncn2C1OC(COP(=O)(O)CP(=O)(O)OP(=O)(O)O)C(O)C1O", "note": "(stereo not drawn) [α/β-methylATP, α,β-methylene-adenosine-5-triphosphate]", "values": [{"measurement": "seizure time during SE (duration of HAHFDs)", "setting": "[2]", "value": "no differences in seizure time"}]}, {"molecule": "CCC1(c2ccccc2)C(=O)NC(=O)NC1=O", "note": "[phenobarbitone]", "values": [{"measurement": "cases in which neonatal seizures are not stopped", "setting": "[4]", "value": "over 50%"}]}, {"molecule": "Cc1nc(N=Nc2ccc(S(=O)(=O)O)cc2S(=O)(=O)O)c(COP(=O)(O)O)c(C=O)c1O", "note": "[PPADS, Pyridoxal-phosphate-6-azophenyl-2,4-disulfonate]", "values": [{"measurement": "Counts of surviving CA3 neurons (NeuN)", "setting": "[5]", "value": "not protective"}, {"measurement": "FJB-positive cells within the CA3 subfield (neuronal death)", "setting": "[5]", "value": "did not afford protection"}, {"measurement": "seizure time during SE (duration of HAHFDs)", "setting": "[2]", "value": "only a weak, non-significant effect"}]}, {"molecule": "O=C1Nc2ccc(Cl)cc2C(c2ccccc2Cl)=NC1O", "note": "(stereo not drawn) [lorazepam, Lorazepam]", "values": [{"measurement": "duration of action", "setting": "[6]", "value": "2 to 8", "unit": "h"}, {"measurement": "total seizure time (duration of HAHFDs)", "setting": "[7]; given 60 min after KA, 60 min recording, vs vehicle", "value": "failed to significantly reduce"}, {"measurement": "total seizure power (total EEG power)", "setting": "[7]; given 60 min after KA, vs vehicle", "value": "significant reduction"}, {"measurement": "mice continued in SE", "setting": "[7]; given alone 60 min after KA, number of mice / group", "value": "4/7"}, {"measurement": "reduction in power", "setting": "[7]; total power analysis, Fig. 9C, given 60 min after KA, compared to Veh", "value": "~50", "unit": "%"}]}]}
